Reference: US20070128217A1 (priority 2003, published 2007)

Legend:
[1] = system: rabbit serum obtained by immunizing a rabbit with the SARS-CoV strain Frankfurt 1; assay type: binding; design: Binding of a rabbit serum to linear peptides / Binding of a rabbit serum to looped peptides / Rabbit serum linear peptides / Rabbit serum looped peptides / Binding of a rabbit serum to linear peptides of protein N of SARS-CoV Urbani (Rabbit serum linear peptides) / Binding of a rabbit serum to looped/cyclic peptides of protein N of SARS-CoV Urbani (Rabbit serum looped peptides): unit not given here
[2] = system: antibodies in sera from SARS patients (sera 1a, 1b, 2, 6, 37, 62, London, SARS-yellow, SARS-green); assay type: binding, human; design: Binding of serum 6 to linear peptides of protein X1 of SARS-CoV Urbani / Binding of serum 37 to linear peptides of protein X1 of SARS-CoV Urbani / Binding of serum 6 to looped/cyclic peptide (PEPSCAN-ELISA) / Binding of serum 37 to looped/cyclic peptide (PEPSCAN-ELISA) / Binding of serum 37 to looped/cyclic peptides of protein X1 of SARS-CoV Urbani / Binding of serum 6 to linear peptides of protein X2 / Binding of serum 37 to linear peptides of protein X2 / Binding of serum 37 to looped/cyclic peptides of protein X2 of SARS-CoV Urbani / Binding of serum 6 to linear peptides of protein M of SARS-CoV Urbani / Binding of serum 37 to linear peptides of protein M of SARS-CoV Urbani / Binding of serum 6 to looped/cyclic peptides of protein M of SARS-CoV Urbani / Binding of serum 37 to looped/cyclic peptides of protein M of SARS-CoV Urbani / Binding of serum 6 to linear peptides of protein X3 of SARS-CoV Urbani / Binding of serum 37 to linear peptides of protein X3 of SARS-CoV Urbani / Binding of serum 37 to looped/cyclic peptides of protein X3 of SARS-CoV Urbani / Binding of serum 6 to linear peptides of protein X4 of SARS-CoV Urbani / Binding of serum 37 to linear peptides of protein X4 of SARS-CoV Urbani / Binding of serum 37 to looped/cyclic peptides of protein X4 of SARS-CoV Urbani / Binding of serum 6 to linear peptides of protein X5 of SARS-CoV Urbani / Binding of serum 37 to linear peptides of protein X5 of SARS-CoV Urbani / Binding of serum 37 to looped/cyclic peptides of protein X5 of SARS-CoV Urbani / Binding of serum 6 to linear peptides of protein N of SARS-CoV Urbani / Binding of serum 37 to linear peptides of protein N of SARS-CoV Urbani / Binding of serum 6 to linear peptide (PEPSCAN-ELISA) / Binding of serum 1a to looped/cyclic peptides of protein N of SARS-CoV Urbani / Binding of serum 1b to looped/cyclic peptides of protein N of SARS-CoV Urbani / Binding of serum 2 to looped/cyclic peptides of protein N of SARS-CoV Urbani / Binding of serum 6 to looped/cyclic peptides of protein N of SARS-CoV Urbani / Binding of serum 37 to looped/cyclic peptides of protein N of SARS-CoV Urbani / Binding of serum 62 to looped/cyclic peptides of protein N of SARS-CoV Urbani / Binding of serum London to looped/cyclic peptides of protein N of SARS-CoV Urbani / Binding of serum SARS-green to looped/cyclic peptides of protein N of SARS-CoV Urbani: unit not given here
[3] = system: control sera (pooled serum of ten healthy LUMC hospital workers; commercial negative donor pooled serum from the Dutch bloodbank); assay type: binding, human; design: Binding of Control serum LUMC to linear peptides / Binding of Control serum Blood-bank to linear peptides / Binding of Control serum LUMC to looped peptides / Binding of Control Serum Blood-Bank to Looped peptides / Binding of Control serum LUMC to linear peptides of the protein M of SARS-CoV Urbani / Binding of Control serum Blood-bank to linear peptides of the protein M of SARS-CoV Urbani / Binding of Control serum LUMC to looped peptides of the protein M of SARS-CoV Urbani / Binding of Control Serum Blood-Bank to Looped peptides of the protein M of SARS-CoV Urbani: unit not given here

LKILVRYNTRGNTYS
0.1: Rabbit serum looped peptides [1]
0.6: Binding of serum 1b to linear peptides of protein X5 of SARS-CoV Urbani [2] | Binding of serum 2 to looped/cyclic peptides of protein X5 of SARS-CoV Urbani [2] | Binding of serum SARS-green to linear peptides of protein X5 of SARS-CoV Urbani [2] | Binding of Control serum LUMC to looped peptides [3]
0.5: Binding of serum 1a to looped/cyclic peptides of protein X5 of SARS-CoV Urbani [2] | Binding of serum 6 to looped/cyclic peptides of protein X5 of SARS-CoV Urbani [2] | Binding of serum 37 to looped/cyclic peptides of protein X5 of SARS-CoV Urbani [2] | Binding of Control serum LUMC to linear peptides [3]
0.2: Binding of serum London to looped/cyclic peptides of protein X5 of SARS-CoV Urbani [2]
0.8: Binding of serum 2 to linear peptides of protein X5 of SARS-CoV Urbani [2] | Binding of serum 6 to linear peptides of protein X5 of SARS-CoV Urbani [2] | Binding of serum 62 to linear peptides of protein X5 of SARS-CoV Urbani [2] | Binding of serum SARS-yellow to looped/cyclic peptides of protein X5 of SARS-CoV Urbani [2]
0.7: Binding of serum 1a to linear peptides of protein X5 of SARS-CoV Urbani [2] | Binding of serum 37 to linear peptides of protein X5 of SARS-CoV Urbani [2] | Binding of serum 62 to looped/cyclic peptides of protein X5 of SARS-CoV Urbani [2] | Binding of serum London to linear peptides of protein X5 of SARS-CoV Urbani [2] | Binding of Control serum Blood-bank to linear peptides [3]
0.4: Binding of serum 1b to looped/cyclic peptides of protein X5 of SARS-CoV Urbani [2] | Binding of serum SARS-green to looped/cyclic peptides of protein X5 of SARS-CoV Urbani [2] | Binding of Control Serum Blood-Bank to Looped peptides [3]
0.3: Binding of serum SARS-yellow to linear peptides of protein X5 of SARS-CoV Urbani [2]
0.9: Rabbit serum linear peptides [1]

LKQLLEQWNLVIGFL
0.4: Binding of serum 2 to looped/cyclic peptides of protein M of SARS-CoV Urbani [2] | Binding of serum SARS-green to looped/cyclic peptides of protein M of SARS-CoV Urbani [2]
0.1: Rabbit serum looped peptides [1] | Binding of serum SARS-yellow to linear peptides of protein M of SARS-CoV Urbani [2]
0.8: Binding of serum 6 to looped/cyclic peptides of protein M of SARS-CoV Urbani [2]
0.7: Binding of serum 1a to linear peptides of protein M of SARS-CoV Urbani [2] | Binding of serum 6 to linear peptides of protein M of SARS-CoV Urbani [2] | Binding of serum 37 to linear peptides of protein M of SARS-CoV Urbani [2] | Binding of serum 62 to linear peptides of protein M of SARS-CoV Urbani [2] | Binding of serum 62 to looped/cyclic peptides of protein M of SARS-CoV Urbani [2] | Binding of serum SARS-yellow to looped/cyclic peptides of protein M of SARS-CoV Urbani [2] | Binding of Control Serum Blood-Bank to Looped peptides of the protein M of SARS-CoV Urbani [3] | Binding of Control serum Blood-bank to linear peptides of the protein M of SARS-CoV Urbani [3] | Binding of Control serum LUMC to looped peptides of the protein M of SARS-CoV Urbani [3]
1.0: Binding of serum London to linear peptides of protein M of SARS-CoV Urbani [2]
0.3: Binding of Control serum LUMC to linear peptides of the protein M of SARS-CoV Urbani [3]
0.6: Binding of serum 1a to looped/cyclic peptides of protein M of SARS-CoV Urbani [2] | Binding of serum 1b to looped/cyclic peptides of protein M of SARS-CoV Urbani [2] | Binding of serum 2 to linear peptides of protein M of SARS-CoV Urbani [2]
0.5: Binding of serum 1b to linear peptides of protein M of SARS-CoV Urbani [2] | Binding of serum 37 to looped/cyclic peptides of protein M of SARS-CoV Urbani [2]
0.2: Rabbit serum linear peptides [1] | Binding of serum London to looped/cyclic peptides of protein M of SARS-CoV Urbani [2] | Binding of serum SARS-green to linear peptides of protein M of SARS-CoV Urbani [2]

LKTHRMCKYTQSTAL
0.5: Binding of a rabbit serum to looped peptides [1] | Binding of serum 2 to linear peptides of protein X2 [2] | Binding of serum 6 to looped/cyclic peptides of protein X2 of SARS-CoV Urbani [2] | Binding of serum 37 to looped/cyclic peptides of protein X2 of SARS-CoV Urbani [2] | Binding of serum London to linear peptides of protein X2 [2] | Binding of serum SARS-green to linear peptides of protein X2 [2]
0.4: Binding of a rabbit serum to linear peptides [1] | Binding of serum 2 to looped/cyclic peptides of protein X2 of SARS-CoV Urbani [2]
0.8: Binding of serum 1a to linear peptides of protein X2 [2] | Binding of serum SARS-yellow to linear peptides of protein X2 [2]
0.2: Binding of serum London to looped/cyclic peptides of protein X2 of SARS-CoV Urbani [2]
0.6: Binding of serum 1a to looped/cyclic peptides of protein X2 of SARS-CoV Urbani [2] | Binding of serum 1b to linear peptides of protein X2 [2] | Binding of serum 1b to looped/cyclic peptides of protein X2 of SARS-CoV Urbani [2] | Binding of serum 6 to linear peptides of protein X2 [2] | Binding of serum 62 to looped/cyclic peptides of protein X2 of SARS-CoV Urbani [2] | Binding of serum SARS-yellow to looped/cyclic peptides of protein X2 of SARS-CoV Urbani [2] | Binding of Control serum LUMC to linear peptides [3] | Binding of Control serum LUMC to looped peptides [3]
0.3: Binding of serum SARS-green to looped/cyclic peptides of protein X2 of SARS-CoV Urbani [2]
0.7: Binding of serum 37 to linear peptides of protein X2 [2] | Binding of serum 62 to linear peptides of protein X2 [2] | Binding of Control Serum Blood-Bank to Looped peptides [3] | Binding of Control serum Blood-bank to linear peptides [3]

LKVTAFQHQNSKKTT
0.4: Binding of serum 1b to linear peptides of protein X2 [2] | Binding of serum 62 to looped/cyclic peptides of protein X2 of SARS-CoV Urbani [2] | Binding of Control serum Blood-bank to linear peptides [3] | Binding of Control serum LUMC to looped peptides [3]
0.5: Binding of serum 1a to linear peptides of protein X2 [2] | Binding of serum 37 to linear peptides of protein X2 [2]
0.6: Binding of a rabbit serum to linear peptides [1]
0.7: Binding of serum SARS-yellow to linear peptides of protein X2 [2]
0.1: Binding of serum 2 to looped/cyclic peptides of protein X2 of SARS-CoV Urbani [2] | Binding of serum 6 to looped/cyclic peptides of protein X2 of SARS-CoV Urbani [2] | Binding of serum London to looped/cyclic peptides of protein X2 of SARS-CoV Urbani [2] | Binding of serum SARS-green to looped/cyclic peptides of protein X2 of SARS-CoV Urbani [2]
0.3: Binding of a rabbit serum to looped peptides [1] | Binding of serum 1a to looped/cyclic peptides of protein X2 of SARS-CoV Urbani [2] | Binding of serum 2 to linear peptides of protein X2 [2] | Binding of serum 6 to linear peptides of protein X2 [2] | Binding of serum 62 to linear peptides of protein X2 [2] | Binding of Control Serum Blood-Bank to Looped peptides [3]
0.2: Binding of serum 1b to looped/cyclic peptides of protein X2 of SARS-CoV Urbani [2] | Binding of serum 37 to looped/cyclic peptides of protein X2 of SARS-CoV Urbani [2] | Binding of serum London to linear peptides of protein X2 [2] | Binding of serum SARS-green to linear peptides of protein X2 [2] | Binding of serum SARS-yellow to looped/cyclic peptides of protein X2 of SARS-CoV Urbani [2]
0.8: Binding of Control serum LUMC to linear peptides [3]

LLEQWNLVIGFLFLA
0.2: Binding of serum 1b to looped/cyclic peptides of protein M of SARS-CoV Urbani [2] | Binding of serum 6 to linear peptides of protein M of SARS-CoV Urbani [2] | Binding of serum London to looped/cyclic peptides of protein M of SARS-CoV Urbani [2] | Binding of serum SARS-green to looped/cyclic peptides of protein M of SARS-CoV Urbani [2] | Binding of serum SARS-yellow to linear peptides of protein M of SARS-CoV Urbani [2] | Binding of Control Serum Blood-Bank to Looped peptides of the protein M of SARS-CoV Urbani [3]
0.6: Rabbit serum linear peptides [1] | Binding of serum 1b to linear peptides of protein M of SARS-CoV Urbani [2]
0.0: Rabbit serum looped peptides [1]
0.5: Binding of serum 1a to looped/cyclic peptides of protein M of SARS-CoV Urbani [2] | Binding of Control serum Blood-bank to linear peptides of the protein M of SARS-CoV Urbani [3] | Binding of Control serum LUMC to looped peptides of the protein M of SARS-CoV Urbani [3]
0.7: Binding of serum 1a to linear peptides of protein M of SARS-CoV Urbani [2]
0.4: Binding of serum 2 to linear peptides of protein M of SARS-CoV Urbani [2] | Binding of serum 2 to looped/cyclic peptides of protein M of SARS-CoV Urbani [2] | Binding of serum 6 to looped/cyclic peptides of protein M of SARS-CoV Urbani [2] | Binding of serum 37 to linear peptides of protein M of SARS-CoV Urbani [2] | Binding of serum 37 to looped/cyclic peptides of protein M of SARS-CoV Urbani [2] | Binding of serum 62 to linear peptides of protein M of SARS-CoV Urbani [2] | Binding of serum 62 to looped/cyclic peptides of protein M of SARS-CoV Urbani [2] | Binding of serum SARS-yellow to looped/cyclic peptides of protein M of SARS-CoV Urbani [2] | Binding of Control serum LUMC to linear peptides of the protein M of SARS-CoV Urbani [3]
0.3: Binding of serum London to linear peptides of protein M of SARS-CoV Urbani [2] | Binding of serum SARS-green to linear peptides of protein M of SARS-CoV Urbani [2]
